Laboratory results reported in patent US20120165319A1, “INHIBITORS OF INTERLEUKIN-1 BETA CONVERTING ENZYME” (VERTEX PHARMACEUTICALS INCORPORATED, priority 1995, published 2012).
Read-outs that look alike come from different tables or passages of the source.

How the values were obtained:
IL-1β, human whole blood = experiment: Whole blood assay for IL-1β production; format: cell-based; details: Table 17, read-out: Whole human blood IC50
Procedure, shortened: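 IL-1β was quantified by ELISA in plasma diluted 1:200. The plasma came from EDTA-anticoagulated human whole blood incubated at 30 °C for 16-18 h with LPS (final 5.0 ng/ml) plus a saline serial dilution of compound. Controls were no-LPS, no-inhibitor and highest-vehicle.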

[1] = tested on: IL-1β production, LPS-challenged mice; experiment: In vivo acute assay for efficacy as anti-inflammatory agent: LPS-induced IL-1β production in mice; set-up: species or system mouse; details: LPS challenged mice, compound PO, 50 mg/kg; for inhibition at 50 mg/kg: Mus musculus, po, read-out: percent inhibition of IL-1β production
Method: In Vivo Acute Assay for Efficacy as Anti-Inflammatory Agent
LPS-Induced IL-1β Production.
Efficacy of 214e and 217e was evaluated in CD1 mice (n=6 per condition) challenged with LPS (20 mg/kg IP). […] Blood was collected seven hours after LPS challenge. Serum IL-1β levels were measure by ELISA. […] Similar results were obtained in a second experiment. […] However, a clear dose response was not apparent.
Compounds 214e and 217e (50 mg/kg) were also administered by oral gavage to assess absorption.
The efficacy of analogs of 214e were also evaluated in LPS challenged mice after IP administration (FIG. 9) and PO administration (FIG. 10).
[…] The protocol is described in Example 7.

[2] = administered 0 h relative to time of LPS challenge
[3] = administered −2 h relative to time of LPS challenge
[4] = 0 h, administered 0 h relative to time of LPS challenge
[5] = 2 h, administered −2 h relative to time of LPS challenge

SMILES	IC50 (IL-1β, human whole blood)	percent inhibition of IL-1β production [1, 2]	percent inhibition of IL-1β production [1, 3]	IC50 (IL-1β, human whole blood; Homo sapiens)	inhibition at 50 mg/kg [1, 4]	inhibition at 50 mg/kg [1, 5]
O=C1C[C@H](NC(=O)[C@@H]2CCCN3C(=O)CC[C@H](NC(=O)c4ccc(O)cc4)C(=O)N23)C(OCc2ccccc2)O1 (mixture of isomers) [Compound 213p, [1S,9S (2RS,3S)]N-(2-Benzyloxy-5-oxotetrahydrofuran-3-yl)-6,10-dioxo-9-(4-hydroxybenzoyl)amino-1,2,3,4,7,8,9,10-octahydro-6H-pyridazino[1,2-a][1,2]diazepine-1-carboxamide]	< 300 nM	29%	21%	–	–	–
O=C1C[C@H](NC(=O)[C@@H]2CCCN3C(=O)CC[C@H](NC(=O)c4cc5ccccc5[nH]4)C(=O)N23)C(OCc2ccccc2)O1 (mixture of isomers) [Compound 213q, [1S,9S(2RS,3S)]N-(2-Benzyloxy-5-oxotetrahydrofuran-3-yl)-6,10-dioxo-9-(indol-2-oylamino)-1,2,3,4,7,8,9,10-octahydro-6H-pyridazino[1,2-a][1,2]diazepine-1-carboxamide]	< 300 nM	91%	17%	–	–	–
Cc1ccccc1C(=O)N[C@H]1CCC(=O)N2CCC[C@@H](C(=O)N[C@H]3CC(=O)OC3OCc3ccccc3)N2C1=O (mixture of isomers) [Compound 213r, [1S,9S(2RS,3S)]N-(2-Benzyloxy-5-oxotetrahydrofuran-3-yl)-6,10-dioxo-1,2,3,4,7,8,9,10-octahydro-9-(2-toluoylamino)-6H-pyridazino[1,2-a][1,2]diazepine-1-carboxamide]	< 300 nM	37%	59%	–	–	–
O=C1C[C@H](NC(=O)[C@@H]2CCCN3C(=O)CC[C@H](NC(=O)c4nccc5ccccc45)C(=O)N23)C(OCc2ccccc2)O1 (mixture of isomers) [Compound 213y, [1S,9S(2RS,3S)]N-(2-Benzyloxy-5-oxotetrahydrofuran-3-yl)-6,10-dioxo-9-(isoquinolin-1-oylamino)-1,2,3,4,7,8,9,10-octahydro-6-H-pyridazino[1,2-a][1,2]diazepine-1-carboxamide]	930 nM	50%	29%	–	–	–
CC(=O)OC1OC(=O)CC1NC(=O)[C@@H]1CCCN2C(=O)CC[C@H](NC(=O)c3ccccc3)C(=O)N12 (mixture of isomers) [Compound 2100h, [1S,9S(2RS,3RS)]9-Benzoylamino-6,10-dioxo-1,2,3,4,7,8,9,10-octahydro-N-(2-acetoxy-5-oxotetrahydrofuran-3-yl)-6H-pyridazino[1,2-a][1,2]diazepine-1-carboxamide]	–	–	–	2000 nM	32%	34%
O=C1C[C@H](NC(=O)[C@@H]2CCCN3C(=O)CC[C@H](NC(=O)c4cc(Cl)c(O)c(Cl)c4)C(=O)N23)C(OCc2ccccc2)O1 (stereo partly drawn) [Compound 213k, [1S,9S(2RS,3S)]9-[(3,5-Dichloro-4-hydroxybenzoyl)amino]-6,10-dioxo-1,2,3,4,7,8,9,10-octahydro-N-(2-Benzyloxy-5-oxotetrahydrofuran-3-yl)-6H-pyridazino[1,2-a][1,2]diazepine-1-carboxamide]	–	–	–	2000 nM	68%	0%
CC(=O)Nc1ccc(C(=O)N[C@H]2CCC(=O)N3CCC[C@@H](C(=O)N[C@H]4CC(=O)OC4OCc4ccccc4)N3C2=O)cc1Cl (stereo partly drawn) [Compound 213l, [1S,9S(2RS,3S)]9-[(3-Chloro-4-acetamidobenzoyl)amino]-6,10-dioxo-1,2,3,4,7,8,9,10-octahydro-N-(2-Benzyloxy-5-oxotetrahydrofuran-3-yl)-6H -pyridazino[1,2-a][1,2]diazepine-1-carboxamide]	–	–	–	2000 nM	80%	-18%
COc1c(Cl)cc(C(=O)N[C@H]2CCC(=O)N3CCC[C@@H](C(=O)N[C@H]4CC(=O)OC4OCc4ccccc4)N3C2=O)cc1Cl (stereo partly drawn) [Compound 213m, [1S,9S(2RS,3S)]9-[(3,5-Dichloro-4-methoxybenzoyl)amino]-6,10-dioxo-1,2,3,4,7,8,9,10-octahydro-N-(2-Benzyloxy-5-oxotetrahydrofuran-3-yl)-6H-pyridazino[1,2-a][1,2]diazepine-1-carboxamide]	–	–	–	2500 nM	42%	26%
O=C1C[C@H](NC(=O)[C@@H]2CCCN3C(=O)CCN(NC(=O)c4ccc5c(c4)OCO5)C(=O)N23)C(OCc2ccccc2)O1 (stereo partly drawn) [Compound 264l, [4S(2RS,3S)]N-(2-Benzyloxy-5-oxotetrahydrofuran-3-yl)-6,10-dioxo-7-(3,4-methylenedioxybenzoylamino)-1,2,3,4,7,8,9,10-octahydro-6H-pyridazino[1,2-a][1,2,4]triazepine-4-carboxamide]	–	–	–	3000 nM	23%	0%
CCOC1OC(=O)C[C@@H]1NC(=O)[C@@H]1CCCN2C(=O)CCN(NC(=O)c3ccc4c(c3)OCO4)C(=O)N12 (stereo partly drawn) [Compound 528, [4S(2RS,3S)]6,10-Dioxo-N-(2-ethoxy-5-oxotetrahydrofuran-3-yl)-7-(3,4-methylenedioxybenzoylamino)-1,2,3,4,7,8,9,10-octahydro-6H-pyridazino[1,2-a][1,2,4]triazepine-4-carboxamide]	–	–	–	2200 nM	67%	25%
CCOC1OC(=O)C[C@@H]1NC(=O)[C@@H]1CCCN2C(=O)CC[C@H](NC(=O)c3ccc(N(C)C)cc3)C(=O)N12 (stereo partly drawn) [Compound 550f, [1S,9S(2RS,3S)]9-[(4-Dimethylaminobenzoyl)amino]-6,10-dioxo-1,2,3,4,7,8,9,10-octahydro-N-(2-ethoxy-5-oxotetrahydrofuran-3-yl)-6H-pyridazino[1,2-a][1,2]diazepine-1-carboxamide]	–	–	–	1100 nM	50%	0%
CCOC1OC(=O)C[C@@H]1NC(=O)[C@@H]1CCCN2C(=O)CC[C@H](NC(=O)c3ccc(N)c(Cl)c3)C(=O)N12 (stereo partly drawn) [Compound 550h, [1S,9S(2RS,3S)]9-[(3-Chloro-4-aminobenzoyl)amino]-6,10-dioxo-1,2,3,4,7,8,9,10-octahydro-N-(2-ethoxy-5-oxotetrahydrofuran-3-yl)-6H-pyridazino[1,2-a][1,2]diazepine-1-carboxamide]	–	–	–	1800 nM	73%	55%
CCOC1OC(=O)C[C@@H]1NC(=O)[C@@H]1CCCN2C(=O)CC[C@H](NC(=O)c3ccc(OC)cc3)C(=O)N12 (stereo partly drawn) [Compound 550i, [1S,9S(2RS,3S)]9-[(4-Methoxybenzoyl)amino]-6,10-dioxo-1,2,3,4,7,8,9,10-octahydro-N-(2-ethoxy-5-oxotetrahydrofuran-3-yl)-6H-pyridazino[1,2-a][1,2]diazepine-1-carboxamide]	–	–	–	1400 nM	23%	-10%
CCOC1OC(=O)C[C@@H]1NC(=O)[C@@H]1CCCN2C(=O)CC[C@H](NC(=O)c3cc(Cl)c(O)c(Cl)c3)C(=O)N12 (stereo partly drawn) [Compound 550k, [1S,9S(2RS,3S)]9-[(3,5-Dichloro-4-hydroxybenzoyl)amino]-6,10-dioxo-1,2,3,4,7,8,9,10-octahydro-N-(2-ethoxy-5-oxotetrahydrofuran-3-yl)-6H-pyridazino[1,2-a][1,2]diazepine-1-carboxamide]	–	–	–	3000 nM	34%	36%
CCOC1OC(=O)C[C@@H]1NC(=O)[C@@H]1CCCN2C(=O)CC[C@H](NC(=O)c3ccc(NC(C)=O)c(Cl)c3)C(=O)N12 (stereo partly drawn) [Compound 550l, [1S,9S (2RS,3S)]9-[(3-Chloro-4-acetamidobenzoyl)amino]-6,10-dioxo-1,2,3,4,7,8,9,10-octahydro-N-(2-ethoxy-5-oxotetrahydrofuran-3-yl)-6H-pyridazino[1,2-a][1,2]diazepine-1-carboxamide]	–	–	–	750 nM	38%	9%
CCOC1OC(=O)C[C@@H]1NC(=O)[C@@H]1CCCN2C(=O)CC[C@H](NC(=O)c3cc(Cl)c(OC)c(Cl)c3)C(=O)N12 (stereo partly drawn) [Compound 550m, [1S,9S(2RS,3S)]9-[(3,5-Dichloro-4-methoxybenzoyl)amino]-6,10-dioxo-1,2,3,4,7,8,9,10-octahydro-N-(2-ethoxy-5-oxotetrahydrofuran-3-yl)-6H-pyridazino[1,2-a][1,2]diazepine-1-carboxamide]	–	–	–	2000 nM	52%	45%
CCOC1OC(=O)C[C@@H]1NC(=O)[C@@H]1CCCN2C(=O)CC[C@H](NC(=O)c3cccc(NC(C)=O)c3)C(=O)N12 (stereo partly drawn) [Compound 550n, [1S,9S (2RS,3S)]9-(3-Acetamido) benzoylamino-6,10-dioxo-N-(2-ethoxy-5-oxo-tetrahydrofuran-3-yl)-1,2,3,4,7,8,9,10-octahydro-6H-pyridazino[1,2-a][1,2]diazepine-1-carboxamide]	–	–	–	< 300 nM	65%	19%
